Entries after “also recorded” stand apart in the source; their conditions may differ.
Tests used:
FIVFC1 = experiment: FIV enhancement and suppression (E/S) analysis of in vitro FIV infection of feline PBMC; assay type: cell-based, feline immunodeficiency virus; conditions: for Direct effect on in vitro FIV infection (enhancement/suppression): 7 μg/mL peptide or MAP, PBMC of uninfected SPF cats, versus virus control; for FIV Test E/S (enhancer/suppressor analysis): FIV peptides, in vitro FIV infection of uninfected cat PBMC
Protocol: FIV viral enhancement or suppression was determined using a 48-well modification of the method described for detecting FIV enhancing activity of IFNγ and FIV suppressive activity of IFNα [37]. […] MAP1c contained four branched chains of peptide Fp4-3. T-cell mitogen concanavalin A (ConA) at 4 μg/mL was used as an infection enhancing control. Six hours after the culturing with peptide, MAP, or ConA, varying dilutions of FIVFC1 were added to the wells. Seventy-two hours later the cells were re-cultured in fresh culture media with ConA-stimulated autologous PBMC (0.25-0.5×10^6) using the same amount of corresponding peptide, MAP, ConA or media. On Day 7, 10, and 13 of culture, 0.5 mL of culture fluid was collected and 0.5 mL of fresh media added to maintain a consistent volume. The harvested culture samples were analyzed for FIV titer using the previously described RT assay. The results are shown as the end-point dilution titer from two studies using PBMC from different SPF donors.
Statistical analysis. The statistically significant differences between the end-point dilution titers of the peptide or MAP culture samples and either the virus control samples or specific MAP culture samples were calculated using a paired Student t-test with a two-tailed distribution (SigmaPlot version 11.0). Statistical comparisons between pre and post-vaccination(s) were similarly performed. The comparison was considered statistically significant when p<0.05.

[1] = tested on: CD8^+ T cells from HIV^+ subjects; experiment: FACS-based intracellular staining (ICS) for cytolysin (perforin) and cytotoxins (GrzA, GrzB) in CD8+ T cells; conditions: HIV+ human subjects; for Cyto: CD8+ T-cell cytotoxins (perforin, GrzA & B), frequency of responders: FIV epitope peptide; for Cyto (cytolysin/cytotoxin production), frequency of responders: FIV peptides
Method in brief: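 Peptides tested with PBMC and T cells from HIV^+ subjects, some on ART. CFSE proliferation positive at ≥2% CFSE^low CD4^+ or CD8^+ T cells; intracellular perforin, granzyme A and B staining by FACS positive at ≥0.2%.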

PBMC from cat SBA = assay type: cell-based; conditions: PBMC of cat SBA, 14 wk post-challenge boost

| Sequence | Direct effect on in vitro FIV infection (enhancement/suppression) (FIVFC1) | FIV Test E/S (enhancer/suppressor analysis) (FIVFC1) | Cyto: CD8+ T-cell cytotoxins (perforin, GrzA & B), frequency of responders [1] | Cyto (cytolysin/cytotoxin production), frequency of responders [1] | Direct effect on in vitro FIV infection (enhancement/suppression) (FIVFC1; listed as Fp4-3 real) | GrzA mRNA (PBMC from cat SBA) | GrzB mRNA (PBMC from cat SBA) | IFNγ mRNA (PBMC from cat SBA) | IL2 mRNA (PBMC from cat SBA) | perforin mRNA (PBMC from cat SBA) |
| --- | --- | --- | --- | --- | --- | --- | --- | --- | --- | --- |
| KKKSGKWRMLIDFRV [FRT3-3] | significant enhancement; also recorded: enhanced in vitro FIV infection; also recorded: enhance/ | ↑ | ++++ (>54% (++++)) | ++++ (>54% (++++)) |  |  |  |  |  |  |
| WRMLIDFRVLNKL [FRT3-4] | significantly suppressed FIV infection; also recorded: suppress | ↓ | ++++ (>54% (++++)) | ++++ (>54% (++++)) |  |  |  |  |  |  |
| PTDMATLIMAAPGCA [Fp4-3] | significantly enhanced FIV infection | ↑ |  |  | enhancing | low | no detectable levels | high | low | no detectable levels |

From patent US10758609B2, “Cross-reactive T-cell epitopes of HIV, SIV, and FIV for vaccines in humans and cats” (priority 2015, dated 2020)
